{"source": "paper PMC3328416", "about": "(2012)", "target": "T1, glutathione peroxidase 1 (GPx-1) (Bos taurus, UniProt P00435)", "T1 sequence (P00435 1-205)": "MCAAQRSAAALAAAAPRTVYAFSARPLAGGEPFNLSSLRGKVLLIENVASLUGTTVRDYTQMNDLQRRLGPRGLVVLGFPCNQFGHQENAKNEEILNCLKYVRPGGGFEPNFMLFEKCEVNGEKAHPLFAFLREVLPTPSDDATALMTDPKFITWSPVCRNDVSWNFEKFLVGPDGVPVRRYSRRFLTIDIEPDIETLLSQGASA", "assay": "immobilized enzyme inactivation, GR-coupled NADPH assay at […] nm after wash-out", "assay_type": "biochemical", "data": [{"compound": "CCN1C(=O)C=CC1=O", "note": "[NEM, N-ethylmaleimide]", "values": [{"measurement": "IC50", "result": 8.77, "unit": "mM"}]}]}
